Target: T1, human mAChR M4 (Homo sapiens, UniProt P08173)
T1 construct: expressed in transfected cells
T1 sequence (P08173 1-479): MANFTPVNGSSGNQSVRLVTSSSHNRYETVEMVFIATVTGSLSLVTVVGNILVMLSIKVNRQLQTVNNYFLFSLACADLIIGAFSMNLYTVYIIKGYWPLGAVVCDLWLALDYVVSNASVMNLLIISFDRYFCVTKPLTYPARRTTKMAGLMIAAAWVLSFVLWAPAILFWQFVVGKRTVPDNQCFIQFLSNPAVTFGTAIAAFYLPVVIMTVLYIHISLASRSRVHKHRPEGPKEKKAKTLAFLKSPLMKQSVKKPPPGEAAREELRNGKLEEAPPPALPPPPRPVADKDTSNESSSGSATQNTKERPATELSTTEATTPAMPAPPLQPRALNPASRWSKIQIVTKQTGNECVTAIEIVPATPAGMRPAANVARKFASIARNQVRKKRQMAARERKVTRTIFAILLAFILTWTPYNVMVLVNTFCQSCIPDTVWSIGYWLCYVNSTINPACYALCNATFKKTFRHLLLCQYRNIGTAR
Experiment: mAChR M4 cell-based functional assay (calcium mobilization, CHO-K1 hM4-Gqi5 cells)
Details: for Emax at 30 µM: CHO-K1, % ACh maximum at 30 μM, human M4; for EC50: positive allosteric modulator activity, increase in the EC20 acetylcholine response, CHO-K1 hM4-Gqi5 cells, read-out: Human M4 EC50
Procedure, shortened: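 CHO-K1 cells stably expressing human M4 with chimeric Gqi5, loaded with Fluo-4 AM; compounds given as 11-point 1:3 curves and calcium flux read on FDSS at 1 Hz. Acetylcholine EC20 added at 144 s, EC80 at 230 s; agonist, PAM (EC20 potentiation) and antagonist (EC80 inhibition) EC50/Emax from four-parameter fits.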

Compound	Emax at 30 µM [%]	EC50 [µM]
Cc1cc(C(=O)NCc2cncs2)nnc1N1CCc2ncc(C(F)(F)F)cc2C1 [Example 492, 5-methyl-N-(thiazol-5-ylmethyl)-6-(3-(trifluoromethyl)-7,8-dihydro-1,6-naphthyridin-6(5H)-yl)pyridazine-3-carboxamide]	110	0.017
Cc1cc(C(=O)NCc2ccncc2)nnc1N1CCc2ncc(C(F)(F)F)cc2C1 [Example 493, 5-methyl-N-(pyridin-4-ylmethyl)-6-(3-(trifluoromethyl)-7,8-dihydro-1,6-naphthyridin-6(5H)-yl)pyridazine-3-carboxamide]	112	0.037
Cc1cnccc1CNC(=O)c1cc(C)c(N2CCc3ncc(C(F)(F)F)cc3C2)nn1 [Example 494, 5-methyl-N-((3-methylpyridin-4-yl)methyl)-6-(3-(trifluoromethyl)-7,8-dihydro-1,6-naphthyridin-6(5H)-yl)pyridazine-3-carboxamide]	106	0.036
COc1cnccc1CNC(=O)c1cc(C)c(N2CCc3ncc(C(F)(F)F)cc3C2)nn1 [Example 495, N-((3-methoxypyridin-4-yl)methyl)-5-methyl-6-(3-(trifluoromethyl)-7,8-dihydro-1,6-naphthyridin-6(5H)-yl)pyridazine-3-carboxamide]	102	0.043
Cc1cc(C(=O)NCc2ccncc2F)nnc1N1CCc2ncc(C(F)(F)F)cc2C1 [Example 496, N-((3-fluoropyridin-4-yl)methyl)-5-methyl-6-(3-(trifluoromethyl)-7,8-dihydro-1,6-naphthyridin-6(5H)-yl)pyridazine-3-carboxamide]	102	0.037
Cc1cc(C(=O)NCc2ccncc2Cl)nnc1N1CCc2ncc(C(F)(F)F)cc2C1 [Example 497, N-((3-chloropyridin-4-yl)methyl)-5-methyl-6-(3-(trifluoromethyl)-7,8-dihydro-1,6-naphthyridin-6(5H)-yl)pyridazine-3-carboxamide]	101	0.064
Cc1cc(C(=O)N2CCc3cnccc3C2)nnc1N1CCc2ncc(C(F)(F)F)cc2C1 [Example 498, (3,4-dihydro-2,6-naphthyridin-2(1H)-yl)(5-methyl-6-(3-(trifluoromethyl)-7,8-dihydro-1,6-naphthyridin-6(5H)-yl)pyridazin-3-yl)methanone]	85	3.17
Cc1cc(C(=O)N2CCc3ccncc3C2)nnc1N1CCc2ncc(C(F)(F)F)cc2C1 [Example 499, (3,4-dihydro-2,7-naphthyridin-2(1H)-yl)(5-methyl-6-(3-(trifluoromethyl)-7,8-dihydro-1,6-naphthyridin-6(5H)-yl)pyridazin-3-yl)methanone]	88	2.67
Cc1cc(C(=O)N2CCc3cccnc3C2)nnc1N1CCc2ncc(C(F)(F)F)cc2C1 [Example 500, (5,8-dihydro-1,7-naphthyridin-7(6H)-yl)(5-methyl-6-(3-(trifluoromethyl)-7,8-dihydro-1,6-naphthyridin-6(5H)-yl)pyridazin-3-yl)methanone]	92	1.79
Cc1cc(C(=O)NC2CCc3ncccc3C2)nnc1N1CCc2ncc(C(F)(F)F)cc2C1 (stereo not shown) [Example 501, 5-methyl-N-(5,6,7,8-tetrahydroquinolin-6-yl)-6-(3-(trifluoromethyl)-7,8-dihydro-1,6-naphthyridin-6(5H)-yl)pyridazine-3-carboxamide]	109	0.127
Cc1cc(C(=O)N2CCCC2)nnc1N1CCc2ncc(C(F)(F)F)cc2C1 [Example 502, (5-methyl-6-(3-(trifluoromethyl)-7,8-dihydro-1,6-naphthyridin-6(5H)-yl)pyridazin-3-yl)(pyrrolidin-1-yl)methanone]	105	3.53

— patent US20250230155A1 (Vanderbilt University, priority 2021, published 2025)
